The CC50 is the concentration that lowers cell viability or growth by half.

Each structure is given as a SMILES string. In brackets after ≈: the same amount, converted by molar mass.

Data on 8 compounds can be found in patent publication US5541215A, “Heterocycle-substituted benzenemethanamine derivatives” (Janssen Pharmaceutica N.V., priority 1991, dated 1996).

Series [1] has as its system HIV-1. In words: in-vitro anti-HIV assay: inhibition of HIV-induced cytopathic effect in MT-4 cells (MTT). In kind it is cell-based. Conditions: for SI (selectivity index, ratio of CD50 to ED50): CD50/ED50, MT-4 cells; for EC50: Human immunodeficiency virus 1, MT4, read-out: ED50 (50% effective dose). On the procedure:
(§1) A rapid, sensitive and automated assay procedure was used for the in-vitro evaluation of anti-HIV agents. An […] T4-cell line, MT-4, which was previously shown Koyanagi et al., Int. J. Cancer, , 36, 445-451, 1985) to be highly susceptible to and permissive for HIV infection, served as the target cell line. Inhibition of the HIV-induced cytopathic effect was used as the end point. The viability of both HIV- and mock-infected cells was assessed spectrophotometrically via the in-situ reduction of 3-(4,5-dimethylthiazol-2-yl)-2,5-diphenyltetrazolium bromide (MTT). The 50% cytotoxic dose (CD50 in μg/ml) was defined as the concentration of compound that reduced the absorbance of the mock-infectedcontrol sample by 50%. The percent protection achieved by the compound in HIV-infected cells was calculated by the following formula: [formula] whereby (ODT)HIV is the optical density measured with a given concentration of the test compound in HIV-infected cells; (ODC)HIV is the optical density measured for the control untreated HIV-infected cells; (ODC)MOCK is the optical density means for the control untreated mock-infected cells; all optical density values were determined at 540 nm. The dose achieving 50% protection according to the above formula was defined as the 50% effective dose […]). The ratio of CD50 to ED50 was defined as the selectivity index (SI).
On the technique in general: Cytopathic effects are the visible damage that an infection or toxin causes in cultured cells.

Series [2] is described as follows: in vitro. To be noted: human, mt-4 cells. It is filed as cell-based. Here is the method: as §1

Turning to `NC(=O)C(Nc1ncccc1[N+](=O)[O-])c1c(Cl)cccc1Cl` (racemic) [compound 1, (±)-2,6-dichloro-α-[(3-nitro-2-pyridinyl)amino]benzeneacetamide], in series [1], the “SI (selectivity index, ratio of CD50 to ED50)” value came out at 1299 and the EC50 turned out to be 0.03 µg/mL (≈ 0.0879 µM). The compound also had a CC50 in series [2] of 35.8 µg/mL (≈ 105 µM).

As to `NC(=O)C(Nc1ccc[nH]c1=O)c1c(Cl)cccc1Cl` (racemic) [compound 8, (±)-2,6-dichloro-α-[(1,2-dihydro-2-oxo-3-pyridinyl)amino]benzeneacetamide], in series [1], the “SI (selectivity index, ratio of CD50 to ED50)” value is listed as 1181 and the EC50 was 0.18 µg/mL (≈ 0.577 µM). For the same compound, in series [2], the CC50 stood at 217 µg/mL (≈ 696 µM).

In the case of `CC(=O)c1cccnc1NC(C)c1c(Cl)cccc1Cl` (racemic) [compound 11, (±)-1-[2-[[1-(2,6-dichlorophenyl)ethyl]amino]-3-pyridinyl]ethanone], in series [1], the “SI (selectivity index, ratio of CD50 to ED50)” value was 463 and the EC50 came out at 0.068 µg/mL (≈ 0.22 µM). The same compound had a CC50 in series [2] of 31.4 µg/mL (≈ 102 µM).

Regarding `N#Cc1cccnc1NC(C(N)=O)c1c(Cl)cccc1Cl` (stereo not drawn) [compound 2], in series [1], the “SI (selectivity index, ratio of CD50 to ED50)” value was 243 and the EC50 was 0.1 µg/mL (≈ 0.311 µM). In addition, the CC50 in series [2] is 25.3 µg/mL (≈ 78.8 µM).

In the case of `CCn1nc(C)c([N+](=O)[O-])c1NC(C(N)=O)c1c(Cl)cccc1Cl` (stereo not drawn) [compound 3], in series [1], the “SI (selectivity index, ratio of CD50 to ED50)” value came out at 61 and the EC50 turned out to be 2 µg/mL (≈ 5.37 µM). The same compound showed a CC50 in series [2] of 122 µg/mL (≈ 327 µM).

Consider `CC(=O)c1nccnc1NC(C(N)=O)c1c(Cl)cccc1Cl` (stereo not drawn) [compound 7], for which, in series [1], the “SI (selectivity index, ratio of CD50 to ED50)” value amounted to 41.5 and the EC50 turned out to be 3.8 µg/mL (≈ 11.2 µM). The CC50 in series [2] came to 157 µg/mL (≈ 462 µM).

On to `CC(=O)c1nccnc1NC(C)c1c(Cl)cccc1Cl` (stereo not drawn) [compound 12], for which, in series [1], the “SI (selectivity index, ratio of CD50 to ED50)” value stood at 289 and the EC50 is 0.013 µg/mL (≈ 0.0419 µM). This compound also showed a CC50 in series [2] of 3.82 µg/mL (≈ 12.3 µM).

For the compound `CC(Nc1ncccc1[N+](=O)[O-])c1c(Cl)cccc1Cl` (stereo not drawn) [compound 13], in series [1], the “SI (selectivity index, ratio of CD50 to ED50)” value was determined as 33 and the EC50 came to 0.0073 µg/mL (≈ 0.0234 µM). Further, it took 0.24 µg/mL (≈ 0.769 µM) to reach half-maximal cytotoxicity in series [2] (CC50).
